From patent publication US8946230B2, “Aryl- and heteroaryl- nitrogen-heterocyclic compounds as PDE10 inhibitors” (Amgen Inc., priority 2010, dated 2015)
Read-outs that look alike come from different tables or passages of the source.

Biological target: T1, PDE10 (UniProt Q8CA95)
T1 sequence (Q8CA95 1-790): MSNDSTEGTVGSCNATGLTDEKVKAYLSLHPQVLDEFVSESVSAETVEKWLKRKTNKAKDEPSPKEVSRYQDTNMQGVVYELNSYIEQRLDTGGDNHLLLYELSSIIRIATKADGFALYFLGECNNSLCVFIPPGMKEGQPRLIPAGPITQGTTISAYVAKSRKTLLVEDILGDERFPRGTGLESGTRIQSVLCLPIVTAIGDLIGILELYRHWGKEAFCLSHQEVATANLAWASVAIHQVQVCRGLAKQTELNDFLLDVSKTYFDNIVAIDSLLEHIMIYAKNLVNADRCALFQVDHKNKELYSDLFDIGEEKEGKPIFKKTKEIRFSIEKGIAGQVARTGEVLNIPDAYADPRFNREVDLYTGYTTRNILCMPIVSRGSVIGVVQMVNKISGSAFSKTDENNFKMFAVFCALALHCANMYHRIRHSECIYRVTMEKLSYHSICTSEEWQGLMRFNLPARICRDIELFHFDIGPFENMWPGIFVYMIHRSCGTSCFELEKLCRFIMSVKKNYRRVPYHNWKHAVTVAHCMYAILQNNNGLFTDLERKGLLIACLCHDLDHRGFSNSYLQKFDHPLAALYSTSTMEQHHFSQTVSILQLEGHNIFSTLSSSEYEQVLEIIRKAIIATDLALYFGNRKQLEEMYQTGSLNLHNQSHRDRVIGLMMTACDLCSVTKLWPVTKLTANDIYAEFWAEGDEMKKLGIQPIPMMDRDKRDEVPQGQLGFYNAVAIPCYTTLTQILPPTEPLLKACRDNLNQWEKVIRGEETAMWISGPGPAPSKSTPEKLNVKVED
Experiment: PDE10 enzyme inhibition, IMAP TR-FRET assay (Example A: MPDE10A7 Enzyme Activity and Inhibition)
Format: biochemical
Method: MPDE10A7 Enzyme Activity and Inhibition Enzyme Activity. An IMAP TR-FRET assay was used to analyze the enzyme activity (Molecular Devices Corp., Sunnyvale Calif.). 5 μL of serial diluted PDE10A (BPS Bioscience, San Diego, Calif.) or tissue homogenate was incubated with equal volumes of diluted fluorescein labeled cAMP or cGMP for 60 min in 384-well polystyrene assay plates (Corning, Corning, N.Y.) at room temperature. After incubation, the reaction was stopped by adding 60 μL of diluted binding reagents and was incubated for 3 hours to overnight at room temperature. The plates were read on an Envision (Perkin Elmer, Waltham, Mass.) for time resolved fluorescence resonance energy transfer. The data were analyzed with GraphPad Prism (La Jolla, Calif.). Enzyme Inhibition. To check the inhibition profile, 5 μL of serial diluted compounds were incubated with 5 μL of diluted PDE10 enzyme (BPS Bioscience, San Diego, Calif.) or tissue homogenate in a 384-well polystyrene assay plate (Corning, Corning, N.Y.) for 30 min at room temperature. After incubation, 10 μL of diluted fluorescein labeled cAMP or cGMP substrate were added and incubated for 60 min at room temperature. The reaction was stopped by adding 60 μL of diluted binding reagents and plates were read on an Envision (Perkin Elmer, Waltham, Mass.) for time resolved fluorescence resonance energy transfer. The data were analyzed with GraphPad Prism (La Jolla, Calif.).

[1] = Table 1A, Examples 11-56, read-out: PDE10 IC50
[2] = Table 2A, Examples 61-64, read-out: IC50

| Compound | IC50 [1] | further results |
| --- | --- | --- |
| Cc1ccc2[nH]c(C3CN(c4nccnc4-c4ccccc4)C3)nc2c1 [Example 39, 5-methyl-2-(1-(3-phenylpyrazin-2-yl)azetidin-3-yl)-1H-benzo[d]imidazole] | 39.8 nM |  |
| Cc1ccc2[nH]c(C3CN(c4c(Cl)cncc4Cl)C3)nc2c1 [Example 2A, 2-[1-(3,5-DICHLORO-PYRIDIN-4-YL)-AZETIDIN-3-YL]-5-METHYL-1H-BENZOIMIDAZOLE] |  | IC50 (read-out: IC50): 210 nM |
| c1ccc(-c2nccnc2N2CCC(c3nc4cc(C5CC5)ccc4[nH]3)CC2)cc1 [Example 13, 5-Cyclopropyl-2-[1-(3-phenyl-pyrazin-2-yl)-piperidin-4-yl]-1H-benzoimidazole] | 277 nM |  |
| N#Cc1ccc2[nH]c(C3CCN(c4nccnc4-c4ccccc4)CC3)nc2c1 [Example 1A, 2-[1-(3-PHENYL-PYRAZIN-2-YL)-PIPERIDIN-4-YL]-1H-BENZOIMIDAZOLE-5-CARBONITRILE] |  | IC50 (read-out: IC50): 272 nM |
| Clc1ccc2[nH]c(C3CN(c4nccnc4OC4CCOCC4)C3)nc2c1 [Example 10, 5-CHLORO-2-(1-(3-(TETRAHYDRO-2H-PYRAN-4-YLOXY)PYRAZIN-2-YL)AZETIDIN-3-YL)-1H-BENZO[D]IMIDAZOLE] |  | IC50 (read-out: IC50): 900 nM |
| Clc1ccc(-c2nccnc2N2CC(c3nc4cc(Cl)ccc4[nH]3)C2)cc1 [Example 32, 5-chloro-2-{1-[3-(4-chloro-phenyl)-pyrazin-2-yl]-azetidin-3-yl}-1H-benzoimidazole] | 141 nM |  |
| Cc1ccc2[nH]c(C3CN(c4nccnc4Cl)C3)nc2c1 [Example 48, 2-(1-(3-chloropyrazin-2-yl)azetidin-3-yl)-5-methyl-1H-benzo[d]imidazole] | 456 nM |  |
| Clc1ccc2[nH]c(C3CN(c4cc(C5CCOCC5)ncn4)C3)nc2c1 [Example 6, 5-CHLORO-2-(1-(6-(TETRAHYDRO-2H-PYRAN-4-YL)PYRIMIDIN-4-YL)AZETIDIN-3-YL)-1H-BENZO[D]IMIDAZOLE] |  | IC50 (read-out: IC50): 1280 nM |
| COc1cccc(-c2nccnc2N2CC(c3ccc4ccccc4n3)C2)c1 [Example 64, 2-{1-[3-(3-Methoxy-phenyl)-pyrazin-2-yl]-azetidin-3-yl}-quinoline] |  | IC50 [2]: 17.5 nM |
| Cc1ccc2[nH]c(C3CN(c4c(Cl)cncc4-c4ccccc4)C3)nc2c1 [Example 2B, 2-[1-(3-CHLORO-5-PHENYL-PYRIDIN-4-YL)-AZETIDIN-3-YL]-5-METHYL-1H-BENZOIMIDAZOLE] |  | IC50 (read-out: IC50): 22 nM |
| CC1CCN(c2nccnc2N2CC(c3ccc4ccccc4n3)C2)C1 (stereo not shown) [Example 63, 2-{1-[3-(3-Methyl-pyrrolidin-1-yl)-pyrazin-2-yl]-azetidin-3-yl}-quinoline] |  | IC50 [2]: 641 nM |
| Cc1ccccc1-c1nccnc1N1CC(c2nc3cc(Cl)ccc3[nH]2)C1 [Example 24, 5-chloro-2-[1-(3-o-tolyl-pyrazin-2-yl)-azetidin-3-yl]-1H-benzoimidazole] | 80.6 nM |  |
| c1cnc(N2CC(c3ccc4ccccc4n3)C2)c(N2CCCCC2)c1 [Example 59, 2′-(3-QUINOLIN-2-YL-AZETIDIN-1-YL)-3,4,5,6-TETRAHYDRO-2H-[1,3′]BIPYRIDINYL] |  | IC50 (read-out: IC50): 68 nM |
| N#Cc1ccc2[nH]c(C3CCN(c4ncccc4Cl)C3)nc2c1 (stereo not shown) [Example 11, 2-[1-(3-chloro-pyridin-2-yl)-pyrrolidin-3-yl]-1H-benzoimidazole-5-carbonitrile] | 310 nM |  |
| N#Cc1ccc2[nH]c(C3CCN(c4nccnc4N4CCOCC4)C3)nc2c1 (stereo not shown) [Example 12, 2-[1-(3-Morpholin-4-yl-pyrazin-2-yl)-pyrrolidin-3-yl]-1H-benzoimidazole-5-carbonitrile] | 535 nM |  |
| Clc1ccc2[nH]c(C3CN(c4nccnc4C4CCOCC4)C3)nc2c1 [Example 8, 5-CHLORO-2-(1-(3-(TETRAHYDRO-2H-PYRAN-4-YL)PYRAZIN-2-YL)AZETIDIN-3-YL)-1H-BENZO[D]IMIDAZOLE] |  | IC50 (read-out: IC50): 1160 nM |
| c1ccc2nc(C3CN(c4nccnc4N4CCCCC4)C3)ccc2c1 [Example 57] |  | IC50 (read-out: IC50): 689 nM |
| Clc1ccc2[nH]c(C3CN(c4cc(C5CCOCC5)ccn4)C3)nc2c1 [Example 9, 5-CHLORO-2-(1-(4-(TETRAHYDRO-2H-PYRAN-4-YL)PYRIDIN-2-YL)AZETIDIN-3-YL)-1H-BENZO[D]IMIDAZOLE] |  | IC50 (read-out: IC50): 1170 nM |
| COc1cccc(-c2nccnc2N2CC(c3nc4cc(Cl)ccc4[nH]3)C2)c1 [Example 28, 5-chloro-2-{1-[3-(3-methoxy-phenyl)-pyrazin-2-yl]-azetidin-3-yl}-1H-benzoimidazole] | 26 nM |  |
| Clc1ccc2[nH]c(C3CN(c4nccnc4Cl)C3)nc2c1 [Example 53, 5-chloro-2-(1-(3-chloropyrazin-2-yl)azetidin-3-yl)-1H-benzo[d]imidazole] | 1160 nM |  |
| Cc1ccc(-c2nccnc2N2CC(c3nc4cc(Cl)ccc4[nH]3)C2)cc1 [Example 26, 5-chloro-2-[1-(3-p-tolyl-pyrazin-2-yl)-azetidin-3-yl]-1H-benzoimidazole] | 134 nM |  |
| Clc1ccc2[nH]c(C3CN(c4nc(Cl)ncc4Cl)C3)nc2c1 [Example 55, 5-chloro-2-(1-(2,5-dichloropyrimidin-4-yl)azetidin-3-yl)-1H-benzo[d]imidazole] | 520 nM |  |
| OCC1CCN(c2nccnc2N2CC(c3ccc4ccccc4n3)C2)CC1 [Example 62, {1-[3-(3-Quinolin-2-yl-azetidin-1-yl)-pyrazin-2-yl]-piperidin-4-yl}-methanol] |  | IC50 [2]: 358 nM |
| N#Cc1ccc2[nH]c(C3CCN(c4nccnc4N4CCOCC4)CC3)nc2c1 [Example 1B, 2-[1-(3-MORPHOLIN-4-YL-PYRAZIN-2-YL)-PIPERIDIN-4-YL]-1H-BENZOIMIDAZOLE-5-CARBONITRILE] |  | IC50 (read-out: IC50): 2000 nM |

The next lines start with results.

| IC50 [1] | Compound | further results |
| --- | --- | --- |
| 32900 nM | O=C(c1cccnc1N1CC(c2nc3cc(Cl)ccc3[nH]2)C1)N1CCOCC1 [Example 17, {2-[3-(5-chloro-1H-benzoimidazol-2-yl)-azetidin-1-yl]-pyridin-3-yl}-morpholin-4-yl-methanone] |  |
| 1820 nM | Clc1ccc2[nH]c(C3CN(c4ncccc4Br)C3)nc2c1 [Example 52, 2-(1-(3-bromopyridin-2-yl)azetidin-3-yl)-5-chloro-1H-benzo[d]imidazole] |  |
| 3280 nM | O=C(NC1CCOCC1)c1nccnc1N1CC(c2nc3cc(Cl)ccc3[nH]2)C1 [Example 36, 3-[3-(5-chloro-1H-benzoimidazol-2-yl)-azetidin-1-yl]-pyrazine-2-carboxylic acid (tetrahydro-pyran-4-yl)-amide] |  |
| 1180 nM | O=C(c1cccnc1N1CC(c2nc3cc(Cl)ccc3[nH]2)C1)N1CCC1 [Example 16, Azetidin-1-yl-{2-[3-(5-chloro-1H-benzoimidazol-2-yl)-azetidin-1-yl]-pyridin-3-yl}-methanone] |  |
| 3840 nM | Cc1ccc2[nH]c(C3CN(c4ncccc4Cl)C3)nc2c1 [Example 47, 2-(1-(3-chloropyridin-2-yl)azetidin-3-yl)-5-methyl-1H-benzo[d]imidazole] |  |
| 4650 nM | O=C(NCc1ccccc1)c1cccnc1N1CC(c2nc3cc(Cl)ccc3[nH]2)C1 [Example 19, N-Benzyl-2-[3-(5-chloro-1H-benzoimidazol-2-yl)-azetidin-1-yl]-nicotinamide] |  |
| 168 nM | Clc1ccc2[nH]c(C3CN(c4ncccc4OC4CCOCC4)C3)nc2c1 [Example 49, 5-chloro-2-(1-(3-(tetrahydro-2H-pyran-4-yloxy)pyridin-2-yl)azetidin-3-yl)-1H-benzo[d]imidazole] |  |
| 134 nM | Clc1ccc2[nH]c(C3CN(c4nccnc4N4CCOCC4)C3)nc2c1 [Example 50, 4-(3-(3-(5-chloro-1H-benzo[d]imidazol-2-yl)azetidin-1-yl)pyrazin-2-yl)morpholine] |  |
| 2150 nM | O=C(NC[C@@H]1CCCO1)c1nccnc1N1CC(c2nc3cc(Cl)ccc3[nH]2)C1 [Example 38, 3-[3-(5-chloro-1H-benzoimidazol-2-yl)-azetidin-1-yl]-pyrazine-2-carboxylic acid (tetrahydro-furan-2-ylmethyl)-amide] |  |
| 4780 nM | CC(C)NC(=O)c1cccnc1N1CC(c2nc3cc(Cl)ccc3[nH]2)C1 [Example 21, 2-[3-(5-chloro-1H-benzoimidazol-2-yl)-azetidin-1-yl]-N-isopropyl-nicotinamide] |  |
